Test results as given in patent US20260297070A1, “CYCLIC [COMPOUND LEFT OUT] WRN INHIBITORS” (Nimbus Wadjet, Inc., priority 2023, published 2026).

target: T1, human Werner helicase (WRN-BV08, Uniprot Q14191, amino acids 517-1235 with L1074F point mutation) (Homo sapiens, UniProt Q14191, L1074F); test: WRN (BV08) ADP-Glo Assay; format: biochemical; conditions: 0.15 nM WRN, 5 μM ATP, 0.1 nM DNA duplex, 15 min preincubation, 60 min at 25° C., pH 7.5, 1% DMSO; read-out: ADP-Glo_hWRN_IC50
T1 construct: Uniprot Q14191, amino acids 517-1235 with L1074F point mutation; TEV-cleavable 8×His (C, cleaved yes); made in house; host or cells: Sf9 insect cells (baculovirus)
How it was run: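 ADP-Glo luminescence read-out of ATP hydrolysis. Conditions: 0.15 nM WRN, 5 μM ATP, 0.1 nM DNA duplex, 1% DMSO, 60 min at 25 °C after 15 min compound preincubation. Max/min controls were DMSO and 20 μM NSC-617145; IC50 from four-parameter fit.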

T1 sequence (Q14191 with tags, fused parts or gaps L1074F limits assumed): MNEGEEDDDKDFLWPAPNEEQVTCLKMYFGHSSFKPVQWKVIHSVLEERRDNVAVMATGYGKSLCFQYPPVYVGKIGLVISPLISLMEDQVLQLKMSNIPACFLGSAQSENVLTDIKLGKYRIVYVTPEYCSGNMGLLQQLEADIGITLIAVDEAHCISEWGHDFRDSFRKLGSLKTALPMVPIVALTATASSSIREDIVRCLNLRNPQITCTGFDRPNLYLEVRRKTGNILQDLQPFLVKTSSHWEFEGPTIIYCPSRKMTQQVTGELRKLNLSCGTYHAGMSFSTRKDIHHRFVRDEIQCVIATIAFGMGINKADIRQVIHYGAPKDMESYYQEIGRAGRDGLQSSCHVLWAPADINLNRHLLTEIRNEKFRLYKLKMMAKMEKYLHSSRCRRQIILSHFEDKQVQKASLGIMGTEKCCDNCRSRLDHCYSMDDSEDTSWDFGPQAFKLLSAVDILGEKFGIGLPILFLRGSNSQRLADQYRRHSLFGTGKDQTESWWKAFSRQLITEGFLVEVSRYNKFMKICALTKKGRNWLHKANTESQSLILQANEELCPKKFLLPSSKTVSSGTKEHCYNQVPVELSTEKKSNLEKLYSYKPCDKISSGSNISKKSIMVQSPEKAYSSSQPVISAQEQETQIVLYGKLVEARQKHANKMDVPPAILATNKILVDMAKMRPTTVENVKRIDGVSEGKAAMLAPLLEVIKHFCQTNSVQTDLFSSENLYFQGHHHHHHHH

| IC50 [nM] | SMILES |
| --- | --- |
| < 500 | COc1cc(C(C)N(C(=O)Cn2cc(-c3cc(F)c(F)c(F)c3)cn2)C2C=CS(=O)(=O)C2)ccn1 (stereo not shown) [I-820, N-(1,1-dioxo-2,3-dihydro-1lambda6-thiophen-3-yl)-N-[1-(2-methoxypyridin-4-yl)ethyl]-2-[4-(3,4,5-trifluorophenyl)-1H-pyrazol-1-yl]acetamide] |
| < 500 | COc1cc(CN(C(=O)C(C(=O)N(C)CC2CC(F)(F)C2)c2ccc(-c3ccc(F)c(F)c3)cc2F)[C@@H]2C=CS(=O)(=O)C2)ccn1 (stereo partly drawn) [I-822, N-[(3,3-difluorocyclobutyl)methyl]-N′-[(3R)-1,1-dioxo-2,3-dihydro-1lambda6-thiophen-3-yl]-N′-[(2-methoxypyridin-4-yl)methyl]-N-methyl-2-{3,3′,4′-trifluoro-[1,1′-biphenyl]-4-yl}propanediamide] |
| > 50000 | O=C(Cn1cc(-c2cc(F)c(F)c(F)c2)cn1)OCC1(c2csc(CNC3C=CS(=O)(=O)C3)n2)CC1 (stereo not shown) [I-823, [1-(2-{[(1,1-dioxo-2,3-dihydro-1lambda6-thiophen-3-yl)amino]methyl}-1,3-thiazol-4-yl)cyclopropyl]methyl 2-[4-(3,4,5-trifluorophenyl)-1H-pyrazol-1-yl]acetate] |
| < 500 | O=C(Cn1cc(-c2cc(F)c(F)c(F)c2)cn1)N(Cc1cc(C2CC2)ns1)C1C=CS(=O)(=O)C1 (stereo not shown) [I-824, N-[(3-cyclopropyl-1,2-thiazol-5-yl)methyl]-N-(1,1-dioxo-2,3-dihydro-1lambda6-thiophen-3-yl)-2-[4-(3,4,5-trifluorophenyl)-1H-pyrazol-1-yl]acetamide] |
| < 500 | CC(C)(O)c1cc(CN(C(=O)Cc2cc(-c3ccc(F)c(F)c3)sn2)[C@@H]2C=CS(=O)(=O)C2)ccn1 [I-825, 2-[5-(3,4-difluorophenyl)-1,2-thiazol-3-yl]-N-[(3R)-1,1-dioxo-2,3-dihydro-1lambda6-thiophen-3-yl]-N-{[2-(2-hydroxypropan-2-yl)pyridin-4-yl]methyl}acetamide] |
| < 500 | CC(O)(c1cc(CN(C(=O)Cn2cc(-c3cc(F)c(F)c(F)c3)cn2)C2C=CS(=O)(=O)C2)ccn1)C1CC1 (stereo not shown) [I-826, N-{[2-(1-cyclopropyl-1-hydroxyethyl)pyridin-4-yl]methyl}-N-(1,1-dioxo-2,3-dihydro-1lambda6-thiophen-3-yl)-2-[4-(3,4,5-trifluorophenyl)-1H-pyrazol-1-yl]acetamide] |
| < 500 | CC(O)(c1cc(CN(C(=O)Cn2cc(-c3cc(F)c(F)c(F)c3)cn2)C2C=CS(=O)(=O)C2)ccn1)C(F)F (stereo not shown) [I-827, N-{[2-(1,1-difluoro-2-hydroxypropan-2-yl)pyridin-4-yl]methyl}-N-(1,1-dioxo-2,3-dihydro-1lambda6-thiophen-3-yl)-2-[4-(3,4,5-trifluorophenyl)-1H-pyrazol-1-yl]acetamide] |
| < 500 | COc1cc([C@H](C)N(C(=O)Cn2cc(-c3cc(F)c(F)c(F)c3)cn2)[C@@H]2C=CS(=O)(=O)C2)ccn1 [I-829, N-[(3R)-1,1-dioxo-2,3-dihydro-1lambda6-thiophen-3-yl]-N-[(1S)-1-(2-methoxypyridin-4-yl)ethyl]-2-[4-(3,4,5-trifluorophenyl)-1H-pyrazol-1-yl]acetamide] |
| < 500 | CC(C)(O)c1cc(CN(C(=O)Cn2cc(-c3cc(F)c(F)c(F)c3)c(F)n2)[C@@H]2C=CS(=O)(=O)C2)ccn1 [I-832, N-[(3R)-1,1-dioxo-2,3-dihydro-1lambda6-thiophen-3-yl]-2-[3-fluoro-4-(3,4,5-trifluorophenyl)-1H-pyrazol-1-yl]-N-{[2-(2-hydroxypropan-2-yl)pyridin-4-yl]methyl}acetamide] |
| 10000 to 50000 | COc1cc(CN(C(=O)C(OC2CS(=O)(=O)C2)c2ccc(-c3ccc(F)c(F)c3)cc2F)[C@@H]2C=CS(=O)(=O)C2)ccn1 (stereo partly drawn) [I-833, 2-[(1,1-dioxo-1lambda6-thietan-3-yl)oxy]-N-[(3R)-1,1-dioxo-2,3-dihydro-1lambda6-thiophen-3-yl]-N-[(2-methoxypyridin-4-yl)methyl]-2-{3,3′,4′-trifluoro-[1,1′-biphenyl]-4-yl}acetamide] |
| 500 to 5000 | Cc1cccn1-c1ccc(CC(=O)N(Cc2ccc(C(=O)N3CCN(C(=O)CCCc4cn(Cc5ccc(NC(=O)CCOCCOCCOCCOCCNC(=O)CCCC[C@@H]6SC[C@@H]7NC(=O)N[C@@H]76)cn5)nn4)CC3)cc2)C2C=CS(=O)(=O)C2)c(F)c1 (stereo partly drawn) [II-2, 1-{5-[(3aS,4S,6aR)-2-oxo-hexahydro-1H-thieno[3,4-d]imidazol-4-yl]pentanamido}-N-{6-[(4-{4-[4-(4-{[N-(1,1-dioxo-2,3-dihydro-1lambda6-thiophen-3-yl)-2-[2-fluoro-4-(2-methyl-1H-pyrrol-1-yl)phenyl]acetamido]methyl}benzoyl)piperazin-1-yl]-4-oxobutyl}-1H-1,2,3-triazol-1-yl)methyl]pyridin-3-yl}-3,6,9,12-tetraoxapentadecan-15-amide] |
| 10000 to 50000 | O=C(CCCC[C@@H]1SC[C@@H]2NC(=O)N[C@@H]21)NCCOCCOCCOCCOCCC(=O)Nc1ccc(Cn2cc(CCCC(=O)N3CCN(C(=O)c4ccc(CN(C(=O)Cc5ccc(-n6cccc6)cc5F)C5C=CS(=O)(=O)C5)cc4)CC3)nn2)nc1 (stereo partly drawn) [II-3, 1-{5-[(3aS,4S,6aR)-2-oxo-hexahydro-1H-thieno[3,4-d]imidazol-4-yl]pentanamido}-N-{6-[(4-{4-[4-(4-{[N-(1,1-dioxo-2,3-dihydro-1lambda6-thiophen-3-yl)-2-[2-fluoro-4-(1H-pyrrol-1-yl)phenyl]acetamido]methyl}benzoyl)piperazin-1-yl]-4-oxobutyl}-1H-1,2,3-triazol-1-yl)methyl]pyridin-3-yl}-3,6,9,12-tetraoxapentadecan-15-amide] |
| 10000 to 50000 | O=C(CCCC[C@@H]1SC[C@@H]2NC(=O)N[C@@H]21)NCCOCCOCCOCCOCCOCCOCCC(=O)N1CCN(Cc2ccc(CN(C(=O)Cc3ccc(-n4cccc4)cc3F)C3C=CS(=O)(=O)C3)cc2)CC1 (stereo partly drawn) [II-4, 5-[(3aS,4S,6aR)-2-oxo-hexahydro-1H-thieno[3,4-d]imidazol-4-yl]-N-(21-{4-[(4-{[N-(1,1-dioxo-2,3-dihydro-1lambda6-thiophen-3-yl)-2-[2-fluoro-4-(1H-pyrrol-1-yl)phenyl]acetamido]methyl}phenyl)methyl]piperazin-1-yl}-21-oxo-3,6,9,12,15,18-hexaoxahenicosan-1-yl)pentanamide] |
